Measured values from paper PMC2774623 (Biochemistry, 2008).

Assays:
[1] = system: CK2 holoenzyme; assay: Effect of CFTR peptides on substrate phosphorylation by CK2 holoenzyme; format: biochemical, human
[2] = system: CK2α catalytic subunit; assay: Effect of CFTR peptides on substrate phosphorylation by CK2α catalytic subunit; format: biochemical, human; conditions: below 400 μM, murine NBD1, Figure 3A
[3] = system: CK2α catalytic subunit; conditions: β interaction with CK2α; cited from earlier work

## GTIKENIIFGVSYDEYRYR [CFTR 500−518 wild type]
[1]; peptides 80 μM, I-2 2.5 μM, HSP90 0.5 μM, Figure 5A
  stimulation of I-2 and HSP90 phosphorylation by CK2 holoenzyme: no stimulation
[2]
  effect on NBD1 phosphorylation by CK2α at lower peptide concentrations: slight stimulatory effect

## GTIKENIIGVSYDEYRYR [CFTR 500−518 ΔF508]
[1]; peptide concentration up to 800 μM, Figure 3B
  inhibition of holoenzyme-mediated NBD1 phosphorylation: no inhibition

## Δ wt: CK2 β-subunit; its interaction values with CK2α were from ref 29
[3]
  ka (M^−1 s^−1) × 10^3: 22.7 M^−1 s^−1 × 10^3
  kd (s^−1) × 10^−3: 0.93 s^−1 × 10^−3
